Test system: Mitochondria-located protein genes
Assay: DNA chip mRNA expression in yeast, mitochondria-located protein genes (Table 2)
Assay type: cell-based, Saccharomyces cerevisiae S288C
Details: cells incubated two hours with the chemical substance
Procedure, shortened: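 Ratios compare mRNA levels in stressed and control S. cerevisiae. Each toxicant was applied for two hours to log-phase cultures at 25° C. at a sub-lethal, growth-inhibiting level; fluorescent cDNA (Cy3- or Cy5-dUTP) was hybridized to a genome-wide yeast chip for over 12 h at 65° C.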

Measured: The level of expressed mRNA in the presence of chemical substance/The level of expressed mRNA in the absence of chemical substance

manganese ethylenebis(dithiocarbamate) [(8)]
0.4: yeast gene YBL022C
0.9: yeast gene YBR003W | yeast gene YCR046C | yeast gene YDR178W | yeast gene YHR008C | yeast gene YJL102W | yeast gene YJL133W | yeast gene YLR348C | yeast gene YML120C | yeast gene YNL071W | yeast gene YNL104C | yeast gene YNL256W
1.4: yeast gene YBR282W | yeast gene YGR028W | yeast gene YJL166W | yeast gene YLR038C | yeast gene YMR023C | yeast gene YMR035W | yeast gene YPR134W
1.6: yeast gene YBL038W | yeast gene YGL191W | yeast gene YGR174C | yeast gene YKL016C
1.3: yeast gene YBR122C | yeast gene YBR251W | yeast gene YDR231C | yeast gene YDR377W | yeast gene YDR529C | yeast gene YJL096W | yeast gene YMR089C | yeast gene YPL134C
1.8: yeast gene YCL057W | yeast gene YGR244C
1.5: yeast gene YBR091C | yeast gene YCR083W | yeast gene YML054C | yeast gene YMR267W | yeast gene YOR037W
1.9: yeast gene YDR258C | yeast gene YGR008C | yeast gene YGR076C
0.7: yeast gene YFL016C | yeast gene YGL187C | yeast gene YJR121W | yeast gene YKR066C | yeast gene YMR203W | yeast gene YNL055C | yeast gene YOR187W | yeast gene YPR024W
2.3: yeast gene YKL142W
1.2: yeast gene YAL039C | yeast gene YDR298C | yeast gene YDR347W | yeast gene YKL003C | yeast gene YKL170W | yeast gene YLR295C | yeast gene YML129C | yeast gene YPR047W
2.6: yeast gene YDR079W
0.6: yeast gene YDL181W | yeast gene YLR304C
1.7: yeast gene YOR020C
1.1: yeast gene YBR044C | yeast gene YBR185C | yeast gene YDL067C | yeast gene YDL198C | yeast gene YEL039C | yeast gene YKL194C | yeast gene YMR083W | yeast gene YOR150W | yeast gene YPL040C | yeast gene YPL215W | yeast gene YPR037C
1.0: yeast gene YEL024W | yeast gene YIL155C | yeast gene YJL180C | yeast gene YLR395C | yeast gene YNL073W | yeast gene YOL096C | yeast gene YOR100C | yeast gene YOR176W | yeast gene YPL135W | yeast gene YPL262W
0.8: yeast gene YBL030C | yeast gene YBL099W | yeast gene YBR221C | yeast gene YER178W | yeast gene YGL018C | yeast gene YGR062C | yeast gene YGR082W | yeast gene YJR045C | yeast gene YJR077C | yeast gene YKL141W | yeast gene YKL148C | yeast gene YLL041C | yeast gene YLR259C | yeast gene YMR152W | yeast gene YOR130C | yeast gene YOR142W | yeast gene YOR316C
